Data taken from US20250011330A1, “Imidazo[1,2- a]pyrazine and Imidazo[1,2- a]pyridine Based Tyrosyl-DNA Phosphodiesterase I (TDP1) Inhibitors” (The USA, As Represented by the Secretary, Department of …, priority 2021, published 2025).

biological target: TDP1 (Homo sapiens (Human), UniProt Q9NUW8); assay: TDP1 gel-based in vitro fluorescence assay; assay type: biochemical; conditions: Table 1, imidazo[1,2-a]pyridin-3-amines; read-out: IC50
Experimental: (TDP assay buffer: 50 mM Tris HCl, pH 7.5, 80 mM KCl, 2 mM EDTA, 1 mM DTT, 40 μg/ml BSA and 0.01% Tween-20. TDP1 (20 mg/mL in 25 mM Tris-HCl pH 7.2, 150 mM NaCl, 2 mM tris(2-carboxyethyl)phosphine) with 2 mL of well solution composed of 0.1 M MOPS/HEPES pH 7.5, 10% (w/v) PEG 8000, 20% (v/v) ethylene glycol, 0.03 M sodium fluoride, 0.03 M sodium bromide, 0.03 M sodium iodide, 0.03 M sodium bromide and sealed over […] well solution. AF647 labelling buffer: Tris-HCl (pH 7.2, 25 mM), NaCl (150 mM), and tris(2-carboxyethyl)phosphine hydrochloride (TCEP, 2 mM).)
(DNA only: Buffer+DMSO. DMSO only: Enzyme+DMSO. Drug: Enzyme+Drug, 25° C., 10 min+DNA, reaction at 25° C., 15 min.)
Gel images were scanned using a Typhoon FLA 9500 scanner (GE Healthcare) and densitometric analyses were performed using the ImageQuant software (GE Healthcare). The IC50 of TDP1 inhibitors was calculated by comparing the percentage of cleavage product (5′Cy5-[…]-p-3′) to DMSO control.

Chain of TDP1 (Q9NUW8 whole entry): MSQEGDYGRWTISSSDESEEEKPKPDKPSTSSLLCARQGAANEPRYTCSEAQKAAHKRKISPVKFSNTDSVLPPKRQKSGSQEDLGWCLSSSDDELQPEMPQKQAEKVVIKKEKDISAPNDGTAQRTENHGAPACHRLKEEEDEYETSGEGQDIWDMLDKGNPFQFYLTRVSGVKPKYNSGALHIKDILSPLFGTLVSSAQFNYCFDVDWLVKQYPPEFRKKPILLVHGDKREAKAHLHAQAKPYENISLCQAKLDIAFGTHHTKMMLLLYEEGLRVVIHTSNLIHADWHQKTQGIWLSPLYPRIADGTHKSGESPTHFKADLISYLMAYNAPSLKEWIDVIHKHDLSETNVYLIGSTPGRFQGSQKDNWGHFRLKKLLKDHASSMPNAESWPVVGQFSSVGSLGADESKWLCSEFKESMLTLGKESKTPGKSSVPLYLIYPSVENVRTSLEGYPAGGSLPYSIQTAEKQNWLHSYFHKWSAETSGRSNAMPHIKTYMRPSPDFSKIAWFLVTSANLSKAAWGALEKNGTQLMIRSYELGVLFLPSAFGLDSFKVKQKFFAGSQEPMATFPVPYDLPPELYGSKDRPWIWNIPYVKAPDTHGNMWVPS

**Q.** How did the IC50 turn out when `O=C(O)c1ccc(Nc2c(-c3ccc(OCc4ccccc4)cc3)nc3ccccn23)cc1` [Compound 8c, 4-((2-(4-(Benzyloxy)phenyl)imidazo[1,2-a]pyridin-3-yl)amino)benzoic acid] was run?
**A.** The IC50 was 12.7 µM.

**Q.** Which IC50 does the source give for `O=C(O)c1ccc(Nc2c(-c3ccc(C(=O)O)cc3)nc3ccccn23)cc1` [Compound 8h, 4-(3-((4-Carboxyphenyl)amino)imidazo[1,2-a]pyridin-2-yl)benzoic acid] here?
**A.** The IC50 was greater than 100 µM.

**Q.** `O=C(O)c1ccc(Nc2c(-c3ccc([N+](=O)[O-])cc3)nc3ccccn23)cc1` [Compound 8e, 4-((2-(4-Nitrophenyl)imidazo[1,2-a]pyridin-3-yl)amino)benzoic acid] was tested. Which IC50 did it give?
**A.** Its IC50 is 3.2 µM.

**Q.** For `O=C(O)c1ccc2nc(-c3ccccc3)c(Nc3ccccc3)n2c1` [Compound 8k, 2-Phenyl-3-(phenylamino)imidazo[1,2-a]pyridine-6-carboxylic acid], which IC50 is on record?
**A.** The IC50 was 2.4 µM.

**Q.** `O=C(O)c1ccc(Nc2c(-c3ccc(O)cc3)nc3ccccn23)cc1` [Compound 8f, 4-((2-(4-Hydroxyphenyl)imidazo[1,2-a]pyridin-3-yl)amino)benzoic acid] was tested. Which IC50 did it give?
**A.** The IC50 was greater than 100 µM.

**Q.** `O=C(O)c1ccc(Nc2c(-c3ccccc3C(=O)O)nc3ccc(C(=O)O)cn23)cc1` [Compound 8j, 2-(2-Carboxyphenyl)-3-((4-carboxyphenyl)amino)imidazo[1,2-a]pyridine-6-carboxylic acid] was tested. Which IC50 did it give?
**A.** Its IC50 is greater than 100 µM.

**Q.** For `O=C(O)c1ccc(-c2nc3ccccn3c2Nc2ccccc2)cc1` [Compound 8i, 4-(3-(Phenylamino)imidazo[1,2-a]pyridin-2-yl)benzoic acid], which IC50 is on record?
**A.** Its IC50 is 40.1 µM.

**Q.** `O=C(O)c1ccc(Nc2c(-c3ccc(C(F)(F)F)cc3)nc3ccccn23)cc1` [Compound 8d, 4-((2-(4-(Trifluoromethyl)phenyl)imidazo[1,2-a]pyridin-3-yl)amino)benzoic acid] was tested. Which IC50 did it give?
**A.** Its IC50 is 4.2 µM.

same assay, conditions: Table 2, imidazo[1,2-a]pyrazin-3-amine core; read-out: IC50

**Q.** For `CCOC(=O)c1cccc(Nc2c(-c3ccc(C(=O)O)cc3)nc3cnccn23)c1` [Compound 7r, 4-(3-((3-(ethoxycarbonyl)phenyl)amino)imidazo[1,2-a]pyrazin-2-yl)benzoic acid], which IC50 is on record?
**A.** Its IC50 is greater than 1000 µM.

**Q.** For `O=C(O)c1ccc(-c2nc3cnccn3c2Nc2cccc(C(=O)O)c2)cc1` [Compound 7′t, 3-((2-(4-Carboxyphenyl)imidazo[1,2-a]pyrazin-3-yl)amino)benzoic acid], which IC50 is on record?
**A.** The IC50 was greater than 1000 µM.

**Q.** With `O=C(O)c1ccccc1Nc1c(-c2ccccc2O)nc2cnccn12` [Compound 7′s, 2-((2-(2-Hydroxyphenyl)imidazo[1,2-a]pyrazin-3-yl)amino)benzoic acid] as the compound, how does the IC50 read?
**A.** The IC50 was greater than 1000 µM.

**Q.** With `COC(=O)c1cccc(Nc2c(-c3ccccc3O)nc3cnccn23)c1` [Compound 7j] as the compound, how does the IC50 read?
**A.** The IC50 was greater than 1000 µM.

**Q.** `CNC(=O)c1ccc(Nc2c(-c3ccccc3)nc3cnccn23)cc1` [Compound 7i] was tested. Which IC50 did it give?
**A.** Its IC50 is greater than 1000 µM.

**Q.** `O=C(O)c1ccc(Nc2c(-c3ccc(O)cc3)nc3cnccn23)cc1` [Compound 7e] was tested. Which IC50 did it give?
**A.** The IC50 was 20 µM.

**Q.** With `O=C(O)c1ccc(Nc2c(-c3cccc(Cl)c3)nc3cnccn23)cc1` [Compound 7x] as the compound, how does the IC50 read?
**A.** The IC50 was greater than 1000 µM.

**Q.** With `O=C(O)c1ccc(Nc2c(-c3ccc(F)cc3)nc3cnccn23)cc1` [Compound 7′z, 4-((2-(4-Fluorophenyl)imidazo[1,2-a]pyrazin-3-yl)amino)benzoic acid] as the compound, how does the IC50 read?
**A.** The IC50 was greater than 1000 µM.

**Q.** How did the IC50 turn out when `O=C(O)c1cccc(Nc2c(-c3ccc(O)cc3)nc3cnccn23)c1` [Compound 7o] was run?
**A.** The IC50 was 216 µM.

**Q.** How did the IC50 turn out when `O=C(O)c1ccc(Nc2c(-c3ccccc3)nc3cnccn23)c(O)c1` [Compound 7f] was run?
**A.** Its IC50 is 18 µM.

**Q.** Which IC50 does the source give for `O=C(O)c1ccc(Nc2c(-c3ccc(Cl)cc3)nc3cnccn23)cc1` [Compound 7w] here?
**A.** The IC50 was greater than 1000 µM.

**Q.** With `O=C(O)c1ccc(Nc2c(-c3cccc(O)c3)nc3cnccn23)cc1` [Compound 7d] as the compound, how does the IC50 read?
**A.** The IC50 was 127 µM.

**Q.** `CN(C)c1ccc(-c2nc3cnccn3c2Nc2cccc(C(=O)O)c2)cc1` [Compound 7q] was tested. Which IC50 did it give?
**A.** The IC50 was 2900 µM.

**Q.** `Cc1ccc(-c2nc3cnccn3c2Nc2ccc(C(N)=O)cc2)cc1` [Compound 7h] was tested. Which IC50 did it give?
**A.** Its IC50 is greater than 1000 µM.

**Q.** For `O=C(O)c1cccc(Nc2c(-c3ccccc3O)nc3cnccn23)c1` [Compound 7m], which IC50 is on record?
**A.** Its IC50 is 370 µM.

**Q.** With `CN(C)c1ccc(-c2nc3cnccn3c2Nc2ccc(C(=O)O)cc2)cc1` [Compound 7v] as the compound, how does the IC50 read?
**A.** The IC50 was greater than 1000 µM.
